What was measured:
[1] = molecular target: T1, Human immunodeficiency virus type 1 reverse transcriptase (Human immunodeficiency virus 1, UniProt Q72547); test: Compound was tested for inhibitory activity against HIV-1 wild type reverse transcriptase
[2] = molecular target: T1, Human immunodeficiency virus type 1 reverse transcriptase; test: Compound was tested for inhibitory activity against HIV-1 mutant type reverse transcriptase ([…])
[3] = molecular target: Human immunodeficiency virus type 1 reverse transcriptase (Human immunodeficiency virus 1, UniProt Q72547, Y181C); test: Compound was tested for inhibitory activity against HIV-1 mutant type reverse transcriptase (Y181C)
[4] = molecular target: Human immunodeficiency virus type 1 reverse transcriptase (Human immunodeficiency virus 1, UniProt Q72547, P236L); test: Compound was tested for inhibitory activity against HIV-1 mutant type reverse transcriptase (P236L)
[5] = molecular target: Human immunodeficiency virus type 1 reverse transcriptase (Human immunodeficiency virus 1, UniProt Q72547, K103N); test: Compound was tested for inhibitory activity against HIV-1 mutant type reverse transcriptase (K103N)

Row | Structure (SMILES) | IC50 [1] [nM] | IC50 [2] [nM] | IC50 [3] [nM] | IC50 [4] [nM] | IC50 [5] [nM]
1 | C1=Cc2cccnc2N(C2CC2)c2ncccc21 | 20 | 150 | 960 | 10 | 630
2 | CCN1c2ncccc2C=Cc2cccnc21 | 40 | 230 | 2500 | 10 | 1500

Source: ChEMBL document CHEMBL1130928 (Bioorg Med Chem Lett, 1998)
